Assays:
[1] = test system: AD38 cells; experiment: Viability of AD38 cells (Promega CellTiter-Glo) at the end of compound treatment; assay type: cell-based; conditions: 10 μM compound, 6 days, luminescence normalized against DMSO control wells (controls being 100%)
Method: (§1) Example 56: Assay Measuring Activity of Compounds on Viral Production in and on Viability of AD38 Cells
(§2) AD38 cells were then re-suspended with 10 mL of Treatment Medium and counted. Wells of a collagen coated 96-well NUNC microtiter plate were seeded at 50,000/well in 180 μL of Treatment Medium, and 20 μL of in treatment media with either 10% DMSO (Control) or a 10× solution of compound in 10% DMSO was added. Plates were incubated for 6 days at 37° C.
At the end of compound treatment period cell viability was assessed using a Promega CellTiter-Glo protocol. All supernatant was removed the previously treated 96-well microtiter plate, and 50 μL Tetracycline-free treatment medium (DMEM/F12 (1:1), lx Pen/step (cat#: 30-002-CL, Mediatech, Inc), with 2% FBS, Tet-system approved (cat#: 631106, Clontech), and 1% DMSO was added back to each well. Another 50 μL of CellTiter-Glo reagent solution (Promega, G7573) was then added at room temperature and the contents mixed for 2 minutes on an orbital shaker to induce cell lysis. This was followed by incubation at room temperature for 10 minutes to stabilize the luminescent signal. The luminescence was recorded for 0.2 seconds per well on a Tecan multimode platereader (Infinite M1000 pro). The luminescent signal from each well was normalized against that of untreated (DMSO) control wells. All results were reported percent viability (with controls being 100%).

[2] = test system: HBV viral production in AD38 cells; experiment: Viral load production in AD38 cells by quantitative PCR of the HBV core sequence in supernatant; assay type: cell-based; conditions: Hepatitis B virus, 144 h; 10 μM compound, 6 days at 37° C., viral load in supernatant compared against DMSO control wells; read-out: AD38 Viral Load (CpAM/DMSO %) at 10 μM
Method: as §1, §2
Viral load production was assayed by quantitative PCR of the core sequence. Briefly, 5 μL of clarified supematant was added to a PCR reaction mixture that contained forward primers HBV-f 5′-CTGTGCCTTGGGTGGCTTT-3′, Reverse primers HBV-r 5′-[…]-3′ and Fluorescent TaqMan™ Probes HBV-probe 5′-FAM/AGCTCCAAA/ZEN/[…]/3IABkFQ-3′ in Quanta Biosciences PerfeCTa® qPCR Toughmix®, and was subsequently on an Applied Biosystems VIIA7 in a final volume of 20 μL. The PCR mixture was incubated at 45° C. for 5 minutes, then 95° C. for 10 min, followed by 40 cycles of 10 seconds at 95° C. and 20 seconds at 60° C. Viral load was quantitated against known standards by using ViiA™ 7 Software. Viral load in the supematant from wells with treated cells were compared against viral load in supernatant from DMSO control wells (≥3 per plate).

C[C@H](O)CNC(=O)c1ccc2c(c1)NC(=O)c1ccccc1S2 [Compound 1222]
AD38 Viability Normalized Result (CPAM/DMSO %) at 10 μM [1]: 100% | activity at 10 µM [2]: 32%

O=C(Nc1ccccc1)c1ccc2c(c1)NC(=O)c1ccccc1S2 [Compound 1223]
AD38 Viability Normalized Result (CPAM/DMSO %) at 10 μM [1]: 28% | activity at 10 µM [2]: 2%

O=C(NCCc1ccccc1)Nc1ccc2c(c1)NC(=O)c1ccccc1S2 [Compound 1224, 1-(11-oxo-10, 11-dihydrodibenzo [b,f] [1,4]thiazepin-8-yl)-3-phenethylurea]
AD38 Viability Normalized Result (CPAM/DMSO %) at 10 μM [1]: 65% | activity at 10 µM [2]: 3%

O=C(NCCC1CCCCC1)Nc1ccc2c(c1)NC(=O)c1ccccc1S2 [Compound 1225, 1-(2-cyclohexylethyl)-3-(11-oxo-10, 11-dihydrodibenzo [b,f] [1,4]thiazepin-8-yl) urea]
AD38 Viability Normalized Result (CPAM/DMSO %) at 10 μM [1]: 87% | activity at 10 µM [2]: 10%

O=C(NC[C@@H](O)c1ccccc1)c1ccc2c(c1)NC(=O)c1ccccc1S2 [Compound 1226]
AD38 Viability Normalized Result (CPAM/DMSO %) at 10 μM [1]: 80% | activity at 10 µM [2]: 1%

CN(C)c1ccccc1CNC(=O)c1ccc2c(c1)NC(=O)c1ccccc1S2 [Compound 1227]
AD38 Viability Normalized Result (CPAM/DMSO %) at 10 μM [1]: 92% | activity at 10 µM [2]: 10%

O=C(Nc1ccccc1O)c1ccc2c(c1)NC(=O)c1ccccc1S2 [Compound 1229]
AD38 Viability Normalized Result (CPAM/DMSO %) at 10 μM [1]: 76% | activity at 10 µM [2]: 45%

O=C(Nc1ccccn1)c1ccc2c(c1)NC(=O)c1ccccc1S2 [Compound 1230]
AD38 Viability Normalized Result (CPAM/DMSO %) at 10 μM [1]: 102% | activity at 10 µM [2]: 46%

O=C(Nc1cccnc1)c1ccc2c(c1)NC(=O)c1ccccc1S2 [Compound 1231]
AD38 Viability Normalized Result (CPAM/DMSO %) at 10 μM [1]: 93% | activity at 10 µM [2]: 12%

O=C(NCc1ccccc1OC(F)(F)F)c1ccc2c(c1)NC(=O)c1ccccc1S2 [Compound 1232]
AD38 Viability Normalized Result (CPAM/DMSO %) at 10 μM [1]: 94% | activity at 10 µM [2]: 42%

O=C(NCc1cncnc1)c1ccc2c(c1)NC(=O)c1ccccc1S2 [Compound 1233]
AD38 Viability Normalized Result (CPAM/DMSO %) at 10 μM [1]: 93% | activity at 10 µM [2]: 1%

O=C(NCCC1CCCCC1)c1ccc2c(c1)NC(=O)c1ccc(F)cc1S2 [Compound 1234]
AD38 Viability Normalized Result (CPAM/DMSO %) at 10 μM [1]: 79% | activity at 10 µM [2]: 3%

O=C(NCCC1CCCCC1)c1ccc2c(c1)NC(=O)c1cc(Cl)ccc1S2 [Compound 1235]
AD38 Viability Normalized Result (CPAM/DMSO %) at 10 μM [1]: 61% | activity at 10 µM [2]: 6%

O=C(NCCC1CCCCC1)c1ccc2c(c1)NC(=O)c1ccncc1S2 [Compound 1237]
AD38 Viability Normalized Result (CPAM/DMSO %) at 10 μM [1]: 66% | activity at 10 µM [2]: 4%

COC(C)(C)CCNC(=O)c1ccc2c(c1)NC(=O)c1ccccc1S2 [Compound 1238]
AD38 Viability Normalized Result (CPAM/DMSO %) at 10 μM [1]: 104% | activity at 10 µM [2]: 26%

CNc1ccccc1CNC(=O)c1ccc2c(c1)NC(=O)c1ccccc1S2 [Compound 1239, N-(2-(methylamino)benzyl)-11-oxo-10, 11-dihydrodibenzo [b,f] [1,4] thiazepine-8-carboxamide]
AD38 Viability Normalized Result (CPAM/DMSO %) at 10 μM [1]: 106% | activity at 10 µM [2]: 33%

O=C(NCc1ccccc1N1CCCC1)c1ccc2c(c1)NC(=O)c1ccccc1S2 [Compound 1240]
AD38 Viability Normalized Result (CPAM/DMSO %) at 10 μM [1]: 92% | activity at 10 µM [2]: 26%

O=C(NCCCOc1ccccc1)c1ccc2c(c1)NC(=O)c1ccccc1S2 [Compound 1241]
AD38 Viability Normalized Result (CPAM/DMSO %) at 10 μM [1]: 86% | activity at 10 µM [2]: 12%

CC(=O)Nc1ccccc1NC(=O)c1ccc2c(c1)NC(=O)c1ccccc1S2 [Compound 1242]
AD38 Viability Normalized Result (CPAM/DMSO %) at 10 μM [1]: 78% | activity at 10 µM [2]: 91%

CC(=O)Nc1cccc(NC(=O)c2ccc3c(c2)NC(=O)c2ccccc2S3)c1 [Compound 1243]
AD38 Viability Normalized Result (CPAM/DMSO %) at 10 μM [1]: 118% | activity at 10 µM [2]: 20%

O=C(NCCC1CCNCC1)c1ccc2c(c1)NC(=O)c1ccccc1S2 [Compound 1244, 11-oxo-N-(2-(piperidin-4-yl)ethyl)-10, 11-dihydrodibenzo [b,f] [1,4] thiazepine-8-carboxamide]
AD38 Viability Normalized Result (CPAM/DMSO %) at 10 μM [1]: 103% | activity at 10 µM [2]: 14%

O=C(NCc1cncs1)c1ccc2c(c1)NC(=O)c1ccccc1S2 [Compound 1245]
AD38 Viability Normalized Result (CPAM/DMSO %) at 10 μM [1]: 101% | activity at 10 µM [2]: 1%

O=C(NCCc1cnco1)c1ccc2c(c1)NC(=O)c1ccccc1S2 [Compound 1246]
AD38 Viability Normalized Result (CPAM/DMSO %) at 10 μM [1]: 96% | activity at 10 µM [2]: 6%

O=C(NCCc1cncs1)c1ccc2c(c1)NC(=O)c1ccccc1S2 [Compound 1247]
AD38 Viability Normalized Result (CPAM/DMSO %) at 10 μM [1]: 103% | activity at 10 µM [2]: 8%

O=C(NCCc1ccc(-n2ccnc2)cc1)c1ccc2c(c1)NC(=O)c1ccccc1S2 [Compound 1248]
AD38 Viability Normalized Result (CPAM/DMSO %) at 10 μM [1]: 106% | activity at 10 µM [2]: 3%

O=C(NCCc1ccc(-n2cncn2)cc1)c1ccc2c(c1)NC(=O)c1ccccc1S2 [Compound 1249]
AD38 Viability Normalized Result (CPAM/DMSO %) at 10 μM [1]: 108% | activity at 10 µM [2]: 34%

O=C(NCCC1CCCCC1)c1ccc2c(c1)NC(=O)c1ccc(Cl)cc1S2 [Compound 1250]
AD38 Viability Normalized Result (CPAM/DMSO %) at 10 μM [1]: 113% | activity at 10 µM [2]: 14%

O=C(NCC(c1ccccc1)N1CCCC1)c1ccc2c(c1)NC(=O)c1ccccc1S2 (stereo not shown) [Compound 1251]
AD38 Viability Normalized Result (CPAM/DMSO %) at 10 μM [1]: 99% | activity at 10 µM [2]: 8%

O=C(NCCC(c1ccccc1)N1CCCC1)c1ccc2c(c1)NC(=O)c1ccccc1S2 (stereo not shown) [Compound 1252]
AD38 Viability Normalized Result (CPAM/DMSO %) at 10 μM [1]: 94% | activity at 10 µM [2]: 14%

CC(=O)Nc1ccccc1CNC(=O)c1ccc2c(c1)NC(=O)c1ccccc1S2 [Compound 1253]
AD38 Viability Normalized Result (CPAM/DMSO %) at 10 μM [1]: 103% | activity at 10 µM [2]: 15%

O=C(NCCc1ccc(-n2nccn2)cc1)c1ccc2c(c1)NC(=O)c1ccccc1S2 [Compound 1256]
AD38 Viability Normalized Result (CPAM/DMSO %) at 10 μM [1]: 102% | activity at 10 µM [2]: 1%

O=C(NCCC1CCCCC1)c1ccc2c(c1)NC(=O)c1cnccc1S2 [Compound 1257]
AD38 Viability Normalized Result (CPAM/DMSO %) at 10 μM [1]: 113% | activity at 10 µM [2]: 26%

O=C(NC[C@H](CO)c1ccccc1)c1ccc2c(c1)NC(=O)c1ccccc1S2 [Compound 1258]
AD38 Viability Normalized Result (CPAM/DMSO %) at 10 μM [1]: 105% | activity at 10 µM [2]: 12%

O=C(NC[C@@H](CO)c1ccccc1)c1ccc2c(c1)NC(=O)c1ccccc1S2 [Compound 1259]
AD38 Viability Normalized Result (CPAM/DMSO %) at 10 μM [1]: 84% | activity at 10 µM [2]: 11%

CCc1cccc(CCNC(=O)c2ccc3c(c2)NC(=O)c2ccccc2S3)c1 [Compound 1260]
AD38 Viability Normalized Result (CPAM/DMSO %) at 10 μM [1]: 100% | activity at 10 µM [2]: 8%

O=C(NCc1cnco1)c1ccc2c(c1)NC(=O)c1ccccc1S2 [Compound 1264]
AD38 Viability Normalized Result (CPAM/DMSO %) at 10 μM [1]: 104% | activity at 10 µM [2]: 8%

O=C(NCCc1ccc(-n2ccnn2)cc1)c1ccc2c(c1)NC(=O)c1ccccc1S2 [Compound 1266]
AD38 Viability Normalized Result (CPAM/DMSO %) at 10 μM [1]: 74% | activity at 10 µM [2]: 1%

O=C(NCCc1ccc(-n2cnnc2)cc1)c1ccc2c(c1)NC(=O)c1ccccc1S2 [Compound 1267]
AD38 Viability Normalized Result (CPAM/DMSO %) at 10 μM [1]: 93% | activity at 10 µM [2]: 77%

O=C(NC[C@H](C(=O)O)c1ccccc1)c1ccc2c(c1)NC(=O)c1ccccc1S2 [Compound 1268, (R)-3-(11-oxo-10, 11-dihydrodibenzo [b,f] [1,4]thiazepine-8-carboxamido)-2-phenylpropanoic acid]
AD38 Viability Normalized Result (CPAM/DMSO %) at 10 μM [1]: 106% | activity at 10 µM [2]: 77%

O=C(NC[C@@H](C(=O)O)c1ccccc1)c1ccc2c(c1)NC(=O)c1ccccc1S2 [Compound 1269, (S)-3-(11-oxo-10, 11-dihydrodibenzo [b,f] [1,4]thiazepine-8-carboxamido)-2-phenylpropanoic acid]
AD38 Viability Normalized Result (CPAM/DMSO %) at 10 μM [1]: 107% | activity at 10 µM [2]: 63%

O=C(NCCc1cc[nH]n1)c1ccc2c(c1)NC(=O)c1ccccc1S2 [Compound 1270]
AD38 Viability Normalized Result (CPAM/DMSO %) at 10 μM [1]: 94% | activity at 10 µM [2]: 1%

COc1ccc2c(c1)Sc1ccc(C(=O)NCCC3CCCCC3)cc1NC2=O [Compound 1271]
AD38 Viability Normalized Result (CPAM/DMSO %) at 10 μM [1]: 100% | activity at 10 µM [2]: 6%

COc1ccc2c(c1)C(=O)Nc1cc(C(=O)NCCC3CCCCC3)ccc1S2 [Compound 1272]
AD38 Viability Normalized Result (CPAM/DMSO %) at 10 μM [1]: 102% | activity at 10 µM [2]: 24%

Cc1ccc2c(c1)Sc1ccc(C(=O)NCCC3CCCCC3)cc1NC2=O [Compound 1273]
AD38 Viability Normalized Result (CPAM/DMSO %) at 10 μM [1]: 96% | activity at 10 µM [2]: 6%
